Test results as given in ChEMBL document CHEMBL3228019, “Aminoglycoside antibiotics. 2. N,N-Dialkylkanamycins” (1979).

Legend:
Assay type in all cases: functional
Staphylococcus aureus [1] = test: Antibacterial activity against Staphylococcus aureus 9537 assessed as growth inhibition measured after overnight incubation by two-fold broth dilution method
Staphylococcus aureus [2] = test: Antibacterial activity against Staphylococcus aureus 20240 expressing aminoglycoside-3'-phosphotransferase-4 assessed as growth inhibition measured after overnight incubation by two-fold broth dilution method
Escherichia coli [3] = test: Antibacterial activity against Escherichia coli 9632 assessed as growth inhibition measured after overnight incubation by two-fold broth dilution method
Escherichia coli [4] = test: Antibacterial activity against Escherichia coli 20732 expressing aminoglycoside-2''-nucleotidyltransferase assessed as growth inhibition measured after overnight incubation by two-fold broth dilution method
Providencia rettgeri [5] = test: Antibacterial activity against Proteus rettgeri 21207 expressing aminoglycoside-2'-acetyltransferase assessed as growth inhibition measured after overnight incubation by two-fold broth dilution method
Pseudomonas aeruginosa [6] = test: Antibacterial activity against Pseudomonas aeruginosa 20897 expressing aminoglycoside-3'-phosphotransferase-1 and aminoglycoside-6'-acetyltransferase assessed as growth inhibition measured after overnight incubation by two-fold broth dilution method
Klebsiella pneumoniae = test: Antibacterial activity against Klebsiella pneumoniae 9977 assessed as growth inhibition measured after overnight incubation by two-fold broth dilution method
Pseudomonas aeruginosa [7] = test: Antibacterial activity against kanamycin A/B impermeable Pseudomonas aeruginosa 21509 assessed as growth inhibition measured after overnight incubation by two-fold broth dilution method
Pseudomonas aeruginosa [8] = test: Antibacterial activity against Pseudomonas aeruginosa 9843a assessed as growth inhibition measured after overnight incubation by two-fold broth dilution method
Escherichia coli [9] = test: Antibacterial activity against Escherichia coli 21218 expressing aminoglycoside-6'-acetyltransferase assessed as growth inhibition measured after overnight incubation by two-fold broth dilution method
Escherichia coli [10] = test: Antibacterial activity against Escherichia coli 20665 expressing aminoglycoside-3'-phosphotransferase-1 assessed as growth inhibition measured after overnight incubation by two-fold broth dilution method
Enterobacter cloacae [11] = test: Antibacterial activity against Enterobacter cloacae 20364 expressing aminoglycoside-3'-phosphotransferase-1 assessed as growth inhibition measured after overnight incubation by two-fold broth dilution method
Enterobacter cloacae [12] = test: Antibacterial activity against Enterobacter cloacae 9656 assessed as growth inhibition measured after overnight incubation by two-fold broth dilution method
Providencia rettgeri [13] = test: Antibacterial activity against Proteus rettgeri 9637 assessed as growth inhibition measured after overnight incubation by two-fold broth dilution method
Pseudomonas aeruginosa [14] = test: Antibacterial activity against Pseudomonas aeruginosa 20653 expressing aminoglycoside-3'-phosphotransferase-4 assessed as growth inhibition measured after overnight incubation by two-fold broth dilution method
Pseudomonas aeruginosa [15] = test: Antibacterial activity against Pseudomonas aeruginosa 20610 expressing aminoglycoside-3'-phosphotransferase and aminoglycoside-3-acetyltransferase-1 assessed as growth inhibition measured after overnight incubation by two-fold broth dilution method

Measured: MIC

CNC[C@H]1O[C@H](O[C@H]2[C@H](O)[C@@H](O[C@H]3O[C@H](CO)[C@@H](O)[C@H](NC)[C@H]3O)[C@H](N)C[C@@H]2N)[C@H](O)[C@@H](O)[C@@H]1O
125 µg/mL: Escherichia coli [9]
> 125 µg/mL: Staphylococcus aureus [1] | Staphylococcus aureus [2] | Escherichia coli [3] | Escherichia coli [4] | Providencia rettgeri [5] | Pseudomonas aeruginosa [6] | Klebsiella pneumoniae | Pseudomonas aeruginosa [7] | Pseudomonas aeruginosa [8] | Escherichia coli [10] | Enterobacter cloacae [11] | Enterobacter cloacae [12] | Providencia rettgeri [13] | Pseudomonas aeruginosa [14] | Pseudomonas aeruginosa [15]

N[C@@H]1C[C@H](N)[C@@H](O[C@H]2O[C@@H]3CNC(=O)O[C@H]3[C@H](O)[C@H]2O)[C@H](O)[C@H]1O[C@H]1O[C@H](CO)[C@@H](O)[C@@H]2NC(=O)O[C@@H]12
63 µg/mL: Klebsiella pneumoniae | Escherichia coli [9] | Escherichia coli [10] | Enterobacter cloacae [12] | Providencia rettgeri [13]
32 µg/mL: Staphylococcus aureus [1] | Staphylococcus aureus [2] | Escherichia coli [3] | Pseudomonas aeruginosa [6] | Pseudomonas aeruginosa [7] | Pseudomonas aeruginosa [8] | Pseudomonas aeruginosa [14] | Pseudomonas aeruginosa [15]
125 µg/mL: Escherichia coli [4] | Providencia rettgeri [5] | Enterobacter cloacae [11]

CNC[C@H]1O[C@H](O[C@H]2[C@H](O)[C@@H](O[C@H]3O[C@H](CO)[C@@H](O)[C@H](NC)[C@H]3O)[C@H](N)C[C@@H]2N)[C@H](N)[C@@H](O)[C@@H]1O
16 µg/mL: Escherichia coli [3] | Pseudomonas aeruginosa [7] | Providencia rettgeri [13]
63 µg/mL: Escherichia coli [4] | Providencia rettgeri [5] | Escherichia coli [9] | Escherichia coli [10] | Enterobacter cloacae [11]
4 µg/mL: Staphylococcus aureus [1] | Klebsiella pneumoniae
8 µg/mL: Staphylococcus aureus [2] | Pseudomonas aeruginosa [6] | Pseudomonas aeruginosa [8] | Enterobacter cloacae [12] | Pseudomonas aeruginosa [14] | Pseudomonas aeruginosa [15]

NC[C@H]1O[C@H](O[C@H]2[C@H](O)[C@@H](O[C@H]3O[C@H](CO)[C@@H](O)[C@H](N)[C@H]3O)[C@H](N)C[C@@H]2N)[C@H](N)[C@@H](O)[C@@H]1O [BEKANAMYCIN]
2 µg/mL: Escherichia coli [3] | Enterobacter cloacae [12]
0.25 µg/mL: Klebsiella pneumoniae
32 µg/mL: Escherichia coli [4] | Providencia rettgeri [5] | Escherichia coli [9] | Pseudomonas aeruginosa [15]
63 µg/mL: Pseudomonas aeruginosa [8]
0.5 µg/mL: Staphylococcus aureus [1] | Providencia rettgeri [13]
> 125 µg/mL: Staphylococcus aureus [2] | Pseudomonas aeruginosa [6] | Pseudomonas aeruginosa [7] | Escherichia coli [10] | Enterobacter cloacae [11] | Pseudomonas aeruginosa [14]

CCNC[C@H]1O[C@H](O[C@H]2[C@H](O)[C@@H](O[C@H]3O[C@H](CO)[C@@H](O)[C@H](NCC)[C@H]3O)[C@H](N)C[C@@H]2N)[C@H](O)[C@@H](O)[C@@H]1O
63 µg/mL: Staphylococcus aureus [1]
32 µg/mL: Providencia rettgeri [13]
125 µg/mL: Enterobacter cloacae [12]
> 125 µg/mL: Staphylococcus aureus [2] | Escherichia coli [3] | Escherichia coli [4] | Pseudomonas aeruginosa [6] | Klebsiella pneumoniae | Pseudomonas aeruginosa [7] | Pseudomonas aeruginosa [8] | Escherichia coli [9] | Escherichia coli [10] | Enterobacter cloacae [11] | Pseudomonas aeruginosa [14] | Pseudomonas aeruginosa [15]
4 µg/mL: Providencia rettgeri [5]

NC[C@@H]1O[C@@H](O[C@H]2[C@H](O)[C@@H](O[C@H]3O[C@H](CO)[C@@H](O)[C@H](N)[C@H]3O)[C@H](N)C[C@@H]2N)[C@@H](O)[C@H](O)[C@H]1O [KANAMYCIN A]
8 µg/mL: Providencia rettgeri [5]
0.25 µg/mL: Klebsiella pneumoniae
0.5 µg/mL: Providencia rettgeri [13]
125 µg/mL: Escherichia coli [4]
32 µg/mL: Pseudomonas aeruginosa [15]
4 µg/mL: Escherichia coli [3] | Enterobacter cloacae [12]
63 µg/mL: Pseudomonas aeruginosa [8]
> 125 µg/mL: Staphylococcus aureus [2] | Pseudomonas aeruginosa [6] | Pseudomonas aeruginosa [7] | Escherichia coli [9] | Escherichia coli [10] | Enterobacter cloacae [11] | Pseudomonas aeruginosa [14]
1 µg/mL: Staphylococcus aureus [1]
